Data set [1] in a line: BBB penetrability (brain-to-plasma AUC ratio). It is filed as in vivo. An excerpt:
To determine whether DMC-BH inhibits the growth of glioma in the brain, we assessed its octanol-water partition coefficients and BBB penetrability. The hydrophobic parameters (logP) of DMC-BH and DMC were estimated under physiological as well as in acidic and basic conditions. The logP values for DMC-BH were negative at pH 2.5 and pH 9.0, as it was an amphoteric compound. At low pH or high pH conditions, DMC-BH occurred in the form of salts, and its logP values became negative due to better solubility.
Figure 2 Octanol-water partition coefficients (logP) and BBB penetrability of DMC-BH. (A) The logP was defined as log(Coctanol/Cwater). The amount of the compound in the water phase was determined spectrophotometrically, and the amount in the octanol phase was obtained by subtracting the supernatant concentration from the total concentration. (B) The BBB penetrability was defined as a brain-to-plasma AUC(time point) ratio. Values are expressed as the means ± SEM of 3 independent experiments.

In the next data set the test system is p-mTOR. Nature of the data set: Western blot of orthotopic xenograft tissue, p-mTOR. The format is in vivo, mice. Particulars: U87 orthotopic xenografts, versus control. The source says: The PI3K/Akt/mTOR signaling pathway is over activated in glioma tissues, and this increased activation is closely related to malignancy and chemoresistance of gliomas. Previous research reported that among its potential anti-tumor actions in breast cancer, DMC targeted multiple AMPK downstream pathways involving dephosphorylation of Akt and mTOR inhibition. Because DMC-BH is a DMC derivative, we further investigated the inhibitory effects of DMC-BH on gliomas by targeting the Akt/mTOR signaling pathway. We evaluated the expression of p-Akt, and p-mTOR in tumor tissues after DMC-BH treatment (Figure 6A). […] No significant changes were found in total Akt and mTOR expression. Moreover, the expression of p-Akt and p-mTOR in the DMC group was decreased with that in the control group (P < 0.05).
Figure 6 The effects of DMC-BH and DMC on the Akt/mTOR signaling pathway in U87 orthotopic glioblastoma xenografts. (A) Total protein was extracted from U87 orthotopic glioblastoma xenografts. Then p-Akt and p-mTOR protein expression was detected by Western blot. (B) The column chart illustrates the relative expression levels of these proteins.

A further data set relates to U87 cell line. Briefly: Subcutaneous human glioma xenograft in SCID mice. The format is in vivo. Particulars: for tumor volume at day 21: U87 subcutaneous xenograft, 20 mg/kg/day intraperitoneal, 21 days, control 1514 mm^3; for median survival: U87 xenograft, 20 mg/kg, control 15 days. An excerpt:
To examine the anti-glioma effects of DMC-BH in vivo, a human glioma-SCID (severe combined immunodeficient) mouse model was established using the U87 cell line. […] The tumor volumes for the control, TMZ, DMC, and DMC-BH mice at day 21 were 1514 mm^3, 587 mm^3, 876 mm^3 and 570 mm^3, respectively. […] As shown in the Kaplan-Meier curves, the median survival was 15, 27, 19 and 35 days for the control, TMZ, DMC and DMC-BH groups, respectively (Figure 3B).
Figure 3 DMC-BH inhibited U87 glioma cell growth in vivo. Subcutaneous tumors generated from U87 cells were allowed to reach a volume of 150-200 mm^3 and were treated with 20 mg/kg TMZ, DMC or DMC-BH for 21 days. (A) Tumor volume was recorded according to treatment group at the indicated day. (B) The survival of brain tumor-bearing mice was recorded and represented in a Kaplan-Meier plot.
1-[4-Hydroxy-3-(pyrrolidin-1-ylmethyl) phenyl]-7-(4-hydroxy-3-methoxyphenyl) hepta-1,6-diene-3,5-dione, named DMC-BH, was constructed by our lab. DMC was obtained from Sigma-Aldrich (St. Louis, MO). To test the anti-glioma effect of DMC-BH in vivo, a xenograft model of human glioma was established. Four-week-old male SCID mice were purchased from Vital River Laboratory Animal Technology Co., Ltd. (Beijing, China). After a 1-week acclimatization, SCID mice were injected subcutaneously in the right flank with 6 × 10^5 […] glioma cells resuspended in 50 μL DMEM media. Treatment was initiated when the subcutaneous tumors reached an average size of 150 mm^3 to 200 mm^3. Mice received intraperitoneal injection of DMC (20 mg/kg/day), DMC-BH (20 mg/kg/day), TMZ (20 mg/kg/day) or vehicle as a control. Tumor diameter was measured every 2 days with calipers, and the tumor volume was calculated (length × width × height × 0.5). All experiments were carried out in keeping with the procedures and protocols of the Animal Ethics Committee of the First People's Hospital of Kunshan.

Data set [2] in a line: Rat pharmacokinetic study. Conditions: for MRT last: read-out: MRTlast (mean residence time); for half-life: read-out: T1/2 (half-life) (converted). Set-up: Vz_F_obs (volume of distribution): unit not given here. The format is in vivo, rats. The protocol:
Rat PK studies were performed to study whether DMC-BH is more bioavailable than did DMC.
Female Sprague-Dawley (SD) rats (n = 3) were purchased from the Shanghai Experimental Animal Center of Chinese Academy of Science (Shanghai, China). After 3 days of acclimatization, DMC-BH or DMC was administered intravenously into the jugular vein catheters at a dose of 1.00 mg/kg. After oral administration, blood samples (250 μL) were collected via jugular vein catheters at 30, 60, 90, 120, 150, 180 and 240 minutes and 8, 12 and 24 hours. Plasma samples were prepared by centrifuging the blood samples at 13,000 g for 5 minutes. All plasma samples were stored immediately at -80° C until analyzed. Analytes were extracted from 100 μL of plasma with 300 μL of acetonitrile containing 125 ng/mL of the internal standard (midazolam). The samples were thoroughly mixed and centrifuged at 8,000 g. The organic extract was added to 150 μL of 5mM NH4FA and transferred to the autosampler for LC-MS/MS analysis. Multiple reaction monitoring mode, a highly specific and sensitive label-free technique was performed by scanning the most sensitive signals. The pharmacokinetic parameters were determined using non-compartmental analysis (WinNonlin, Pharsight Corporation, Mountain View, CA, USA).

Setting [3] is: female, Sprague-Dawley, plasma, iv, 1.00 mg/kg.
Where [4] appears, read: female, Sprague-Dawley, plasma, po, i.g., 10.0 mg/kg.

The values that follow come from article PMC7762498, “Demethoxycurcumin analogue DMC-BH exhibits potent anticancer effects on orthotopic glioblastomas” (Aging (Albany NY), 2020).

Like-named read-outs stand apart in the source and are kept apart here.

With `COc1cc(C=CC(=O)CC(=O)C=Cc2ccc(O)c(CN3CCCC3)c2)ccc1O` [DMC-BH, 1-[4-Hydroxy-3-(pyrrolidin-1-ylmethyl)phenyl]-7-(4-hydroxy-3-methoxyphenyl) hepta-1,6-diene-3,5-dione], in data set [1] (brain and plasma), the concentration ratio (Kp) at 4 h came to 4.6. Besides, in the data set on p-mTOR, the “p-mTOR expression in tumor tissues” value is recorded as “significantly decreased”. Further, the “tumor volume at day 21” value in the data set with U87 cell line worked out at 570 mm^3. Further, the median survival with U87 cell line is reported as 35 days. The results for the AUC(0-t) in data set [2] (setting [3]) and in data set [2] (setting [4]) were 634 ± 127 ng·h/mL and 3620 ± 623 ng·h/mL, respectively. In addition, the Cmax is 938 ± 231 ng/mL in data set [2] (female, Sprague-Dawley, plasma, iv, 1.00 mg/kg, read-out: Cmax) and 1260 ± 385 ng/mL in data set [2] (female, Sprague-Dawley, plasma, po, i.g., 10.0 mg/kg, read-out: Cmax). Also, the MRT last came to 1.85 ± 0.21 h in data set [2] (setting [3]) and 4.21 ± 0.16 h in data set [2] (setting [4]). Besides, the half-life in data set [2] (setting [3]) was 2.54 ± 0.23 h; in data set [2] (setting [4]), 7.82 ± 1.54 h. Moreover, the Tmax turned out to be 0.08 h in data set [2] (female, Sprague-Dawley, plasma, iv, 1.00 mg/kg, read-out: Tmax) and 1.45 ± 0.35 h in data set [2] (female, Sprague-Dawley, plasma, po, i.g., 10.0 mg/kg, read-out: Tmax). Besides, the Vd in data set [2] (female, Sprague-Dawley, plasma, iv, 1.00 mg/kg, read-out: Vz_F_obs (volume of distribution)) turned out to be 4.9 ± 0.783 L/kg. Besides, the bioavailability in data set [2] (female, Sprague-Dawley, plasma, oral, i.g. 10.0 mg/kg versus i.v. 1.00 mg/kg, read-out: F (percent oral bioavailability)) worked out at 57.1%. Moreover, the CL/F in data set [2] (female, Sprague-Dawley, plasma, po, i.g., 10.0 mg/kg, read-out: Cl_F_obs (plasma clearance rate) (converted)) was 113 mL/min/kg. Also, the Vd/F in data set [2] (female, Sprague-Dawley, plasma, po, i.g., 10.0 mg/kg, read-out: Vz_F_obs (volume of distribution)) was 54.4 ± 19.1 L/kg. In data set [2] (i.v., 1.00 mg/kg), this compound came in with a Cl F obs (plasma clearance rate) of 24.6 ± 4.28 mL/min/kg. The “increased exposure (AUC) when administered orally compared to DMC” value in data set [2] (oral) is reported as “approximately 6 fold”.

In the case of “Demethoxycurcumin [DMC, reference compound]”, the “brain-to-plasma AUC(4h) ratio” value in data set [1] was found to be 0.56. In addition, the “p-mTOR expression in tumor tissues” value in the data set with p-mTOR was “decreased”. Further, in the data set with U87 cell line, the “tumor volume at day 21” value came out at 876 mm^3 and the median survival was 19 days. Moreover, the “F (percent oral bioavailability)” value in data set [2] (i.g. 10.0 mg/kg versus i.v. 1.00 mg/kg) was 8.3%. Moreover, in data set [2] (i.g., 10.0 mg/kg), the AUClast came to 620 ± 271 ng·h/mL, the Cl F obs (plasma clearance rate) was 12.8 ± 1.63 mL/min/kg, the Cmax is listed as 216 ± 46 ng/mL and the “MRTlast (mean residence time)” value stood at 3.12 ± 0.45 h. In addition, in data set [2] (i.g., 10.0 mg/kg), the “T1/2 (half-life)” value is 4.32 ± 1.98 h, the Tmax was found to be 0.67 ± 0.12 h and the “Vz_F_obs (volume of distribution)” value came to 6543 ± 687. Further, in data set [2] (i.v., 1.00 mg/kg), the AUClast came out at 742 ± 254 ng·h/mL, the Cl F obs (plasma clearance rate) was 21.6 ± 3.67 mL/min/kg, the Cmax worked out at 754 ± 275 ng/mL and the “MRTlast (mean residence time)” value turned out to be 1.32 ± 0.29 h. In addition, in data set [2] (i.v., 1.00 mg/kg), the “T1/2 (half-life)” value was 1.24 ± 0.21 h, the Tmax is given as 0.08 ± 0.00 h and the “Vz_F_obs (volume of distribution)” value was 5421 ± 432.
